These results are taken from ChEMBL document CHEMBL3808341, “Natural nitric oxide (NO) inhibitors from Chloranthus japonicus” (Bioorg Med Chem Lett, 2016).

pIC50: −log10 of the molar value. Bounds are passed on as bounds.

For one assay, the system named is RAW264.7. The experiment in a line: Inhibition of LPS-induced NO production in mouse RAW264.7 cells after 24 hrs by Griess assay. The format is functional, cell-based. The settings on record: RAW264.7, 24 h.
For the compound `C=C1[C@H]2C[C@H]2[C@]2(C)[C@@H]3C[C@@]4(O)C5=C(C6=C(C)C(=O)O[C@]6(OCCCC)[C@H](O)[C@@]5(C)[C@@H]5C[C@@H]54)[C@@]34OC(=O)C(C)=C4C[C@@H]12`, the negative logarithm of the IC50 (pIC50) was 4.40. Same read-out and setting: under `C=C1[C@H]2C[C@H]2[C@]2(C)[C@@H]3CC4=C5[C@H](/C(=C(/C)C(=O)OC)C(=O)[C@H](O)[C@@]5(C)[C@@H]5C[C@H]45)[C@@]34OC(=O)C(C)=C4C[C@@H]12` stands 4.58; under `CO[C@]12OC(=O)C(C)=C1C1=C3[C@](C)([C@@H]4C[C@@H]4[C@@]3(O)C[C@@H]3[C@]14OC(=O)C1=C4C[C@H]4[C@](O)(COC(=O)/C(C)=C/COC(=O)CCC(=O)OC1)[C@H]1C[C@H]1[C@]34C)[C@H]2O`, 4.36. Still for that read-out and setting: to `C=C1[C@H]2C[C@H]2[C@]2(C)[C@@H]3CC4=C5[C@H](/C(=C(\C)C(=O)OC)C(=O)C[C@@]5(C)[C@@H]5C[C@H]45)[C@@]34OC(=O)C(C)=C4C[C@@H]12` belongs 4.61.

With `C/C=C(\C)C(=O)OC[C@]1(O)[C@H]2C[C@H]2[C@]2(C)[C@@H]3CC4=C5[C@H](/C(=C(\C)C(=O)OC)C(=O)[C@H](O)[C@@]5(C)[C@@H]5C[C@H]45)[C@@]34OC(=O)C(COC(=O)CCC(=O)O)=C4C[C@@H]12`, the pIC50 is 4.93. `C=C1[C@H]2C[C@H]2[C@@]2(C)[C@H]1[C@@H](OC(C)=O)C1=C(C)C(=O)O[C@@]13[C@@H]1C4=C(C[C@H]32)[C@H]2C[C@H]2[C@]4(C)[C@@H](O)C(=O)/C1=C(/C)C(=O)OC` had a pIC50 of 4.60. The same measure, in the same setting: to `C=C1[C@H]2C[C@H]2[C@]2(C)[C@@H]3CC4=C5[C@H](C(C(C)C(=O)OC)=C(O)C(=O)[C@@]5(C)[C@@H]5C[C@H]45)[C@@]34OC(=O)C(C)=C4C[C@@H]12` (some centres not stated) belongs 4.58; to `C=C1[C@H]2C[C@H]2[C@]2(C)[C@@H]3[C@@H](O)C4=C5[C@H](/C(=C(\C)C(=O)OC)C(=O)[C@H](O)[C@@]5(C)[C@@H]5C[C@H]45)[C@@]34OC(=O)C(C)=C4C[C@@H]12`, 4.33; to `COC(=O)/C(C)=C1\C(=O)[C@H](O)[C@]2(C)C3=C(C[C@@H]4[C@]5(OC(=O)C(CO)=C5C[C@H]5[C@H](COC(C)=O)[C@H]6C[C@H]6[C@]45C)[C@H]31)[C@H]1C[C@H]12`, 5.16. The same measure, in the same setting: under `C=C1[C@H]2C[C@H]2[C@]2(C)[C@@H]3CC4=C5[C@H](/C(=C(\C)C(=O)OC)C(=O)[C@H](O)[C@@]5(C)[C@@H]5C[C@H]45)[C@@]34OC(=O)C(C)=C4C[C@@H]12` stands 4.57. The same measure, in the same setting: under `O=c1c(O)c(-c2ccc(O)c(O)c2)oc2cc(O)cc(O)c12` [QUERCETIN] stands 4.80; under `COC(=O)/C(C)=C1\C(=O)[C@H](O)[C@]2(C)C3=C(C[C@@H]4[C@]5(OC(=O)C6=C5C[C@H]5[C@](O)(COC(=O)/C(C)=C/COC(=O)CCC(=O)OC6)[C@H]6C[C@H]6[C@]45C)[C@H]31)[C@H]1C[C@H]12` [SHIZUKAOL B], 4.83. For the compound `COC(=O)/C(C)=C1\C(=O)[C@H](O)[C@]2(C)C3=C(C[C@@H]4[C@]5(OC(=O)C6=C5C[C@H]5[C@](O)(COC(=O)/C=C(\C)COC(=O)CCC(=O)OC6)[C@H]6C[C@H]6[C@]45C)[C@H]31)[C@H]1C[C@H]12` [SHIZUKAOL F], the pIC50 was 4.68.

For the next assay, the system named is RAW264.7. The experiment in a line: Inhibition of LPS-induced NO production in mouse RAW264.7 cells at 50 uM after 24 hrs by Griess assay. The format is functional. The settings on record: RAW264.7, 24 h.
Turning to `C=C1[C@H]2C[C@H]2[C@]2(C)[C@@H]3C[C@@]4(O)C5=C(C6=C(C)C(=O)O[C@]6(OC)[C@H](O)[C@@]5(C)[C@@H]5C[C@@H]54)[C@@]34OC(=O)C(C)=C4C[C@@H]12`, the inhibition at 50 µM is < 50%. The same measure, in the same setting: to `C=C1[C@H]2C[C@H]2[C@]2(C)[C@@H]3C[C@@]4(O)C5=C(C6=C(C)C(=O)O[C@]6(O)[C@H](O)[C@@]5(C)[C@@H]5C[C@@H]54)[C@@]34OC(=O)C(C)=C4C[C@@H]12` belongs < 50%.

On to `C=C1[C@H]2C[C@H]2[C@@]2(C)[C@H]1[C@@H](OC(C)=O)C1=C(C)C(=O)O[C@@]13C1=C4[C@](C)([C@@H]5C[C@@H]5[C@@]4(O)C[C@H]32)[C@@H](O)C(=O)/C1=C(/C)C(=O)OC`, for which the inhibition at 50 µM is < 50%. Same read-out and setting: under `C=C1[C@H]2C[C@H]2[C@]2(C)[C@@H]3C[C@@]4(OO)C5=C(/C(=C(\C)C(=O)OC)C(=O)[C@H](O)[C@@]5(C)[C@@H]5C[C@@H]54)[C@@]34OC(=O)C(C)=C4C[C@@H]12` stands < 50%.
